A short description of series [1]: MTS viability (toxicity) assay of cells expressing pluripotency markers. Details: Raw data (duplicate), first replicate / Average: unit not given here. Particulars: human, MTS on day 4, relative to Activin A + Wnt3a positive control, read-out: % Control (percentage viability of control); for viability at 4 days, 2.5 μM: cmpd conc 2.5 μM; for viability at 4 days, 5 μM: cmpd conc 5 μM; for viability at 4 days, 10 μM: cmpd conc 10 μM. Format: cell-based, human. The method, boiled down: (§1)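 A GSK-3B inhibitor library was screened for toxicity to pluripotency-marker-expressing cells. Compound was given in DMEM:F12 with 0.5% FCS and 100 ng/ml Activin A for two days, then replaced by medium with 2% FCS and Activin A. On day 4, MTS absorbance at 490 nm gave viability as percent of Activin A plus Wnt3a control wells.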

Series [2] relates to cells expressing pluripotency markers derived from human embryonic stem cells. The series is described as above. Particulars: for viability at 10 µM: Homo sapiens, Embryonic stem cell, viability of cells expressing pluripotency markers, relative to control; for Raw data (duplicate), first replicate / Raw data (duplicate), second replicate: MTS viability assay raw reading; for Raw data (duplicate), first replicate: replicate 1; for Raw data (duplicate), second replicate: replicate 2; for Average: average of duplicate MTS raw readings; for Average of raw data (duplicate), optical density at 490 nm: MTS on day 4. Details: Raw data (duplicate), first replicate / Average: unit not given here. Format: cell-based. Summed up:
as §1

Series [3] has as its system human embryonic stem cell line H1. As to the kind of experiment: Dose titration secondary assay: cell number, H1. Format: cell-based. Particulars: Homo sapiens, Embryonic stem cell, positive control (Wnt3a/Activin A) normalized to 1.000; for activity at 0.156 µM: Conc 0.156 μM; for activity at 0.313 µM: Conc 0.313 μM; for activity at 0.625 µM: Conc 0.625 μM; for activity at 1.25 µM: Conc 1.25 μM; for activity at 2.5 µM: Conc 2.5 μM; for activity at 5 µM: Conc 5 μM; for activity at 10 µM: Conc 10 μM. The method, boiled down:
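H1 or H9 hESCs on Matrigel treated 2 days with compound (seven 2-fold dilutions from 10 μM) in DMEM:F12, 0.5% FCS, 100 ng/ml Activin A without Wnt3a, then 2 days in 2% FCS plus Activin A. Fixed cells immunostained for Sox17 with Hoechst nuclear counterstain for imaging.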

Turning to `O=C1NC(=O)C(c2nn(CCO)c3ccccc23)=C1c1cn(-c2cncnc2)c2ccccc12` [Compound 226, 3-[1-(2-Hydroxyethyl)-1H-indazol-3-yl]-4-(1-pyrimidin-5-yl-1H-indol-3-yl)-1H-pyrrole-2,5-dione], in series [1], the viability at 4 days, 2.5 μM stood at 86.3%; the viability at 4 days, 5 μM stood at 86.7%; the viability at 4 days, 10 μM stood at 78.9%. In addition, in series [2], the viability at 10 µM is 83.1%; the “Raw data (duplicate), first replicate” value came out at 0.683; the “Raw data (duplicate), second replicate” value was determined as 0.688; the Average turned out to be 0.686. The “Average of raw data (duplicate), optical density at 490 nm” value (“Average of raw data (duplicate)” below) in series [2] (cmpd conc 2.5 μM) is on record as 0.7474. Further, the “Average of raw data (duplicate)” value in series [2] (cmpd conc 5 μM) was 0.7506. For the same compound, in series [2] (cmpd conc 10 μM), the “Average of raw data (duplicate)” value turned out to be 0.6945. Further, in series [3], the activity at 0.156 µM worked out at 77.4%, the activity at 0.313 µM is 78.5%, the activity at 0.625 µM stood at 80.5% and the activity at 1.25 µM stood at 73.9%. Further, in series [3], the activity at 2.5 µM worked out at 64%, the activity at 5 µM was 45.8% and the activity at 10 µM was 29%.
As to `O=C1NC(=O)C2=C1Nc1cccc(c1)OCCC/C=C\CCCOc1cccc2c1` [Compound 233, (11Z)-8,9,10,13,14,15-Hexahydro-2,6:17,21-di(metheno)pyrrolo[3,4-h][1,15,7]dioxazacyclotricosine-22,24(1H,23H)-dione], in series [1], the viability at 4 days, 2.5 μM worked out at 41.6%; the viability at 4 days, 5 μM amounted to 0%; the viability at 4 days, 10 μM amounted to 1.5%. For the same compound, in series [2], the viability at 10 µM came out at 70.9%; the “Raw data (duplicate), first replicate” value was 0.608; the “Raw data (duplicate), second replicate” value was determined as 0.590; the Average was determined as 0.599. Further, the “Average of raw data (duplicate)” value in series [2] (cmpd conc 2.5 μM) came to 0.4267. The “Average of raw data (duplicate)” value in series [2] (cmpd conc 5 μM) came to 0.1283. The “Average of raw data (duplicate)” value in series [2] (cmpd conc 10 μM) is 0.1391. In series [3], this compound displayed an activity at 0.156 µM of 83.2%, an activity at 0.313 µM of 79.1%, an activity at 0.625 µM of 73.6% and an activity at 1.25 µM of 63.6%. In series [3], this compound displayed an activity at 2.5 µM of 43.8%, an activity at 5 µM of 8.9% and an activity at 10 µM of 0%.

Source of the values: patent US20130337564A1, “Treatment of Pluripotent Cells” (Janssen Biotech, Inc., priority 2012, published 2013).
